Results published in PubChem BioAssay (NCI).
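All cell lines were grown in 96-well plates and treated with compound for 48 hours. TGI: total growth inhibition.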

How the values were obtained:
Test in all cases: inhibition of tumour cell growth, NCI panel, 48 h
M19-MEL melanoma = test system: M19-MEL melanoma
A498 renal = test system: A498 renal
DMS 273 small cell lung = test system: DMS 273 small cell lung
M14 melanoma = test system: M14 melanoma
SN12C renal = test system: SN12C renal
RPMI-8226 leukemia = test system: RPMI-8226 leukemia
UACC-257 melanoma = test system: UACC-257 melanoma
CAKI-1 renal = test system: CAKI-1 renal
NCI-H460 lung = test system: NCI-H460 lung
SNB-19 CNS = test system: SNB-19 CNS
OVCAR-4 ovarian = test system: OVCAR-4 ovarian
IGROV1 ovarian = test system: IGROV1 ovarian
KM20L2 colon = test system: KM20L2 colon
SK-MEL-28 melanoma = test system: SK-MEL-28 melanoma
MOLT-4 leukemia = test system: MOLT-4 leukemia
RXF-631 renal = test system: RXF-631 renal
UACC-62 melanoma = test system: UACC-62 melanoma
SF-539 CNS = test system: SF-539 CNS
HL-60(TB) leukemia = test system: HL-60(TB) leukemia
NCI-H522 lung = test system: NCI-H522 lung
K-562 leukemia = test system: K-562 leukemia
CCRF-CEM leukemia = test system: CCRF-CEM leukemia
HT29 colon = test system: HT29 colon
U251 CNS = test system: U251 CNS
DLD-1 colon = test system: DLD-1 colon
XF 498 CNS = test system: XF 498 CNS
COLO 205 colon = test system: COLO 205 colon
ACHN renal = test system: ACHN renal
HOP-92 NSCLC = test system: HOP-92 NSCLC
SF-268 CNS = test system: SF-268 CNS
UO-31 renal = test system: UO-31 renal
HCT-15 colon = test system: HCT-15 colon
RXF 393 renal = test system: RXF 393 renal
NCI-H23 lung = test system: NCI-H23 lung
MALME-3M melanoma = test system: MALME-3M melanoma
HOP-18 NSCLC = test system: HOP-18 NSCLC
LOX IMVI melanoma = test system: LOX IMVI melanoma
786-0 renal = test system: 786-0 renal
SK-MEL-2 melanoma = test system: SK-MEL-2 melanoma
OVCAR-5 ovarian = test system: OVCAR-5 ovarian
LXFL 529 NSCLC = test system: LXFL 529 NSCLC
SK-OV-3 ovarian = test system: SK-OV-3 ovarian
SNB-75 CNS = test system: SNB-75 CNS
HCC-2998 colon = test system: HCC-2998 colon
SK-MEL-5 melanoma = test system: SK-MEL-5 melanoma
HOP-62 NSCLC = test system: HOP-62 NSCLC
KM12 colon = test system: KM12 colon
EKVX NSCLC = test system: EKVX NSCLC
DMS 114 small cell lung = test system: DMS 114 small cell lung
OVCAR-8 ovarian = test system: OVCAR-8 ovarian
A549 NSCLC = test system: A549 NSCLC
OVCAR-3 ovarian = test system: OVCAR-3 ovarian
HCT-116 colon = test system: HCT-116 colon
NCI-H226 lung = test system: NCI-H226 lung
TK-10 renal = test system: TK-10 renal
SW-620 colon = test system: SW-620 colon
SF-295 CNS = test system: SF-295 CNS
SR leukemia = test system: SR leukemia

Structure (SMILES): O=C(O)[C@H](NS(=O)(=O)c1ccc2ccccc2c1)c1ccccc1
- TGI (M19-MEL melanoma): > 100 µM
- TGI (A498 renal): > 100 µM
- TGI (DMS 273 small cell lung): > 100 µM
- TGI (M14 melanoma): > 100 µM
- TGI (SN12C renal): > 100 µM
- TGI (RPMI-8226 leukemia): > 100 µM
- TGI (UACC-257 melanoma): > 100 µM
- TGI (CAKI-1 renal): > 100 µM
- TGI (NCI-H460 lung): > 100 µM
- TGI (SNB-19 CNS): > 100 µM
- TGI (OVCAR-4 ovarian): > 100 µM
- TGI (IGROV1 ovarian): > 100 µM
- TGI (KM20L2 colon): > 100 µM
- TGI (SK-MEL-28 melanoma): > 100 µM
- TGI (MOLT-4 leukemia): > 100 µM
- TGI (RXF-631 renal): > 100 µM
- TGI (UACC-62 melanoma): > 100 µM
- TGI (SF-539 CNS): > 100 µM
- TGI (HL-60(TB) leukemia): > 100 µM
- TGI (NCI-H522 lung): > 100 µM
- TGI (K-562 leukemia): > 100 µM
- TGI (CCRF-CEM leukemia): > 100 µM
- TGI (HT29 colon): > 100 µM
- TGI (U251 CNS): > 100 µM
- TGI (DLD-1 colon): > 100 µM
- TGI (XF 498 CNS): > 100 µM
- TGI (COLO 205 colon): > 100 µM
- TGI (ACHN renal): > 100 µM
- TGI (HOP-92 NSCLC): > 100 µM
- TGI (SF-268 CNS): > 100 µM
- TGI (UO-31 renal): > 100 µM
- TGI (HCT-15 colon): > 100 µM
- TGI (RXF 393 renal): > 100 µM
- TGI (NCI-H23 lung): > 100 µM
- TGI (MALME-3M melanoma): > 100 µM
- TGI (HOP-18 NSCLC): > 100 µM
- TGI (LOX IMVI melanoma): > 100 µM
- TGI (786-0 renal): > 100 µM
- TGI (SK-MEL-2 melanoma): > 100 µM
- TGI (OVCAR-5 ovarian): > 100 µM
- TGI (LXFL 529 NSCLC): > 100 µM
- TGI (SK-OV-3 ovarian): > 100 µM
- TGI (SNB-75 CNS): > 100 µM
- TGI (HCC-2998 colon): > 100 µM

Structure (SMILES): Cc1cccc(C(C)C)c1NC(=O)CC1Sc2ccccc2NC1=O (stereo not given)
- TGI (A498 renal): > 100 µM
- TGI (SK-MEL-5 melanoma): > 100 µM
- TGI (DMS 273 small cell lung): > 100 µM
- TGI (HOP-62 NSCLC): > 100 µM
- TGI (M14 melanoma): > 100 µM
- TGI (SN12C renal): > 100 µM
- TGI (RPMI-8226 leukemia): > 100 µM
- TGI (UACC-257 melanoma): > 100 µM
- TGI (CAKI-1 renal): > 100 µM
- TGI (KM12 colon): > 100 µM
- TGI (EKVX NSCLC): > 100 µM
- TGI (NCI-H460 lung): > 100 µM
- TGI (DMS 114 small cell lung): 85 µM
- TGI (SNB-19 CNS): > 100 µM
- TGI (OVCAR-4 ovarian): > 100 µM
- TGI (OVCAR-8 ovarian): > 100 µM
- TGI (IGROV1 ovarian): > 100 µM
- TGI (KM20L2 colon): > 100 µM
- TGI (SK-MEL-28 melanoma): > 100 µM
- TGI (A549 NSCLC): > 100 µM
- TGI (MOLT-4 leukemia): > 100 µM
- TGI (RXF-631 renal): > 100 µM
- TGI (OVCAR-3 ovarian): > 100 µM
- TGI (UACC-62 melanoma): > 100 µM
- TGI (SF-539 CNS): > 100 µM
- TGI (HL-60(TB) leukemia): > 100 µM
- TGI (NCI-H522 lung): > 100 µM
- TGI (K-562 leukemia): > 100 µM
- TGI (HCT-116 colon): > 100 µM
- TGI (NCI-H226 lung): > 100 µM
- TGI (CCRF-CEM leukemia): > 100 µM
- TGI (HT29 colon): > 100 µM
- TGI (TK-10 renal): > 100 µM
- TGI (U251 CNS): > 100 µM
- TGI (DLD-1 colon): > 100 µM
- TGI (XF 498 CNS): > 100 µM
- TGI (COLO 205 colon): > 100 µM
- TGI (ACHN renal): > 100 µM
- TGI (SW-620 colon): > 100 µM
- TGI (HOP-92 NSCLC): > 100 µM
- TGI (SF-268 CNS): > 100 µM
- TGI (UO-31 renal): > 100 µM
- TGI (HCT-15 colon): > 100 µM
- TGI (RXF 393 renal): > 100 µM
- TGI (SF-295 CNS): > 100 µM
- TGI (SR leukemia): > 100 µM
- TGI (NCI-H23 lung): > 100 µM
- TGI (MALME-3M melanoma): 94.2 µM
- TGI (HOP-18 NSCLC): > 100 µM
- TGI (LOX IMVI melanoma): > 100 µM
- TGI (SK-MEL-2 melanoma): > 100 µM
- TGI (OVCAR-5 ovarian): > 100 µM
- TGI (LXFL 529 NSCLC): > 100 µM
- TGI (SK-OV-3 ovarian): > 100 µM
- TGI (SNB-75 CNS): > 100 µM
- TGI (HCC-2998 colon): > 100 µM
